In ChEMBL document CHEMBL3098005, “Structure activity relationships of fused bicyclic and urea derivatives of spirocyclic compounds as potent CCR1 antagonists” (Bioorg Med Chem Lett, 2014):

Key:
[1] = Metabolic stability in human liver microsomes; format: ADME; settings: read-out: Stability
[2] = molecular target: T1, C-C chemokine receptor type 1 (Homo sapiens, UniProt P32246); test: Displacement of [125I]MIP-1alpha from human recombinant CCR1 expressed in HEK293 cell membranes after 1.5 hrs by microbeta counting analysis
T1 sequence (P32246 whole entry): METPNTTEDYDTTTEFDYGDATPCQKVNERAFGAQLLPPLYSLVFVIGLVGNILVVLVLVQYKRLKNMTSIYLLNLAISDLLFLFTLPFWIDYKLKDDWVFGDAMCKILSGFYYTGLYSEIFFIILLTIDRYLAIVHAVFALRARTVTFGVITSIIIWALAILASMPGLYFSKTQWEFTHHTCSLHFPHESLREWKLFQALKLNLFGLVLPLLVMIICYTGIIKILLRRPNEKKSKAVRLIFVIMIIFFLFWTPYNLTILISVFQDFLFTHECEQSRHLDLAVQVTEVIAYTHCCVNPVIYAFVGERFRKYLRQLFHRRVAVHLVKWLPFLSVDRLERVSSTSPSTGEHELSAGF

[3] = Permeability across human Caco2 cells; format: ADME, cell-based; settings: Caco-2, read-out: permeability
[4] = molecular target: T2, C-C chemokine receptor type 1 (Rattus norvegicus, UniProt A6I4C9); test: Displacement of [125I]MIP-1alpha from rat CCR1
T2 sequence (A6I4C9 whole entry): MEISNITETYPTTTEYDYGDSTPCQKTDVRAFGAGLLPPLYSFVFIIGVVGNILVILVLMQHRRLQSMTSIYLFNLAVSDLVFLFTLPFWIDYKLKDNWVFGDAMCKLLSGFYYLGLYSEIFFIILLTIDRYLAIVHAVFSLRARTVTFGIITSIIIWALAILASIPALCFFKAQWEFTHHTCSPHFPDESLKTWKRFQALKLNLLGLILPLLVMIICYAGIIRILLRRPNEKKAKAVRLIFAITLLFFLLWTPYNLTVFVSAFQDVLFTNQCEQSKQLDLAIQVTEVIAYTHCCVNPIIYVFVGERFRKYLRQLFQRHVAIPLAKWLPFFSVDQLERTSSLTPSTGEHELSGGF

[5] = molecular target: Voltage-gated inwardly rectifying potassium channel KCNH2 (Homo sapiens, UniProt Q12809); test: Inhibition of human ERG expressed in HEK cells after 3 hrs by ion flux electrophysiology
Hepatocyte = test: Metabolic stability in human hepatocytes measured per 10^6 cells; format: ADME, cell-based

Sequence of Voltage-gated inwardly rectifying potassium channel KCNH2 (Q12809 whole entry): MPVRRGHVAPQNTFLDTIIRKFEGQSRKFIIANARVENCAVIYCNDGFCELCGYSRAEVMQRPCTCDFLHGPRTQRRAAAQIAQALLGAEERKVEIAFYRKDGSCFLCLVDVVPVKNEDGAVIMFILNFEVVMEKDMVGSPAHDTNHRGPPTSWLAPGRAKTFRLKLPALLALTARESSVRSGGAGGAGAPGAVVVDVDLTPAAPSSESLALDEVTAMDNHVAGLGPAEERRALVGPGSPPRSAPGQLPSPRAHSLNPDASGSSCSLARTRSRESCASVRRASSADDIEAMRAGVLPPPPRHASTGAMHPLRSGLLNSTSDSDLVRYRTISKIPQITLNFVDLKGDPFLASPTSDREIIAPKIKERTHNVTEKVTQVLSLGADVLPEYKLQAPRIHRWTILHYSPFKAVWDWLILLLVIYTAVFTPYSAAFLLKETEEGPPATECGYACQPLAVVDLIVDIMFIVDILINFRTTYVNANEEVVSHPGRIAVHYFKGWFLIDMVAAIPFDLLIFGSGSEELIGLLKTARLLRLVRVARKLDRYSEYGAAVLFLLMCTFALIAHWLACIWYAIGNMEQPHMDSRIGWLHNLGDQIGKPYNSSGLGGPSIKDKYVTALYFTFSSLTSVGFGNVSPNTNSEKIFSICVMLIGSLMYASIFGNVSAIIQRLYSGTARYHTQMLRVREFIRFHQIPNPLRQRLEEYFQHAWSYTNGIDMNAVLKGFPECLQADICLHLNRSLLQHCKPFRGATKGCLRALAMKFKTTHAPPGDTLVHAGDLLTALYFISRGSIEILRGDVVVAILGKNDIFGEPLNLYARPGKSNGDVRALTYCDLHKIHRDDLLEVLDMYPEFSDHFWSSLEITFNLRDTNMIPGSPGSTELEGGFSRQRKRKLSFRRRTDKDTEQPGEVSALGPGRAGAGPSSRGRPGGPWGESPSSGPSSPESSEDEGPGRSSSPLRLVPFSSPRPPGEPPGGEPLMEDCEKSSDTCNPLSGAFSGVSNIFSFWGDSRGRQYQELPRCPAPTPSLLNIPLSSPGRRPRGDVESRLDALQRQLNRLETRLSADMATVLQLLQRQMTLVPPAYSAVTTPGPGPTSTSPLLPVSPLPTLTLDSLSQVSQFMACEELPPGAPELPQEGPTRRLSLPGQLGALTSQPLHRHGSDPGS

Row | SMILES | microsomal CLint [1] | IC50 [2] | Papp [3] | IC50 ([4]; read-out: IC50) | IC50 [5] | Stability (Hepatocyte) | IC50 [4]
1 | O=C(Nc1ccccc1OC[C@@H](O)CN1CCC2(CC1)Cc1cc(Cl)ccc1O2)N1CCCC1 | > 200 µL/min/mg | 1.4 nM | 3.5 ×10⁻⁶ cm/s |  |  |  | 
2 | CNC(=O)Nc1ccc(OC)cc1OC[C@@H](O)CN1CCC2(CC1)Cc1cc(Cl)ccc1O2 | 71.2 µL/min/mg | 4.5 nM |  | 447 nM |  |  | 
3 | CNC(=O)Nc1ccc(O)cc1OC[C@@H](O)CN1CCC2(CC1)Cc1cc(Cl)ccc1O2 | < 10 µL/min/mg | 1.3 nM | 9 ×10⁻⁶ cm/s | 1760 nM | 4600 nM | 5.4 µL/min | 
4 | O=C(Nc1cc(Cl)c(O)cc1OC[C@@H](O)CN1CCC2(CC1)Cc1cc(Cl)ccc1O2)NC1CC1 | < 11.4 µL/min/mg | 1.8 nM |  | 16 nM | 1000 nM | 20.7 µL/min | 
5 | COc1ccc(NC(=O)NC2CC2)c(OC[C@@H](O)CN2CCC3(CC2)Cc2cc(Cl)ccc2O3)c1 | 114 µL/min/mg | 1.8 nM |  | 50 nM |  |  | 
6 | O=C(Nc1ccc(O)cc1OC[C@@H](O)CN1CCC2(CC1)Cc1cc(Cl)ccc1O2)NC1CC1 | < 10 µL/min/mg | 0.89 nM | 2.67 ×10⁻⁶ cm/s | 50 nM |  | 6.4 µL/min | 
7 | COc1ccc(NC(=O)NC2CC2)c(OC[C@@H](O)CN2CCC3(CC2)Cc2cc(F)ccc2O3)c1 | 133 µL/min/mg | 2.2 nM |  | 90 nM |  |  | 
8 | O=C(Nc1ccc(O)cc1OC[C@@H](O)CN1CCC2(CC1)Cc1cc(F)ccc1O2)NC1CC1 | 15.1 µL/min/mg | 0.63 nM | 0.93 ×10⁻⁶ cm/s | 101 nM | 3800 nM | 5.3 µL/min | 
9 | NC(=O)Nc1ccc(O)cc1OC[C@@H](O)CN1CCC2(CC1)Cc1cc(Cl)ccc1O2 | < 10 µL/min/mg | 3.2 nM | 0.5 ×10⁻⁶ cm/s | 1580 nM | > 8900 nM | < 3.8 µL/min | 
10 | NC(=O)Nc1ccccc1OC[C@@H](O)CN1CCC2(CC1)Cc1cc(Cl)ccc1O2 | 21.5 µL/min/mg | 6.7 nM | 14 ×10⁻⁶ cm/s | 2110 nM | 400 nM | < 3 µL/min | 
11 | NC(=O)Nc1ccc(F)cc1OC[C@@H](O)CN1CCC2(CC1)Cc1cc(Cl)ccc1O2 | 17 µL/min/mg | 5.6 nM | 16 ×10⁻⁶ cm/s | 1620 nM |  | 5.7 µL/min | 
12 | O=C1COc2cccc(OC[C@@H](O)CN3CCC4(CC3)Cc3cc(Cl)ccc3O4)c2N1 | 33.7 µL/min/mg | 7.1 nM | 11 ×10⁻⁶ cm/s | 1260 nM | 600 nM | 7.8 µL/min | 
13 | O=C1CCc2cccc(OC[C@@H](O)CN3CCC4(CC3)Cc3cc(Cl)ccc3O4)c2N1 | 65 µL/min/mg | 32 nM | 16 ×10⁻⁶ cm/s |  | 500 nM | Unstable | Not Active
14 | O=c1ccc2cccc(OC[C@@H](O)CN3CCC4(CC3)Cc3cc(Cl)ccc3O4)c2[nH]1 | 12.5 µL/min/mg | 37 nM |  |  |  | Unstable | Not Active
15 | O=c1[nH]c(=O)c2cccc(OC[C@@H](O)CN3CCC4(CC3)Cc3cc(Cl)ccc3O4)c2[nH]1 |  | 560 nM |  | > 6000 nM |  |  | 
16 | Cc1cc2c(OC[C@@H](O)CN3CCC4(CC3)Cc3cc(Cl)ccc3O4)cccc2o1 | 15 µL/min/mg | 160 nM |  |  |  |  | Not Active
17 | Nc1nc2c(OC[C@@H](O)CN3CCC4(CC3)Cc3cc(Cl)ccc3O4)cccc2s1 |  | 1300 nM |  |  |  |  | Not Active
18 | Cc1nc2c(OC[C@@H](O)CN3CCC4(CC3)Cc3cc(Cl)ccc3O4)cccc2s1 |  | 1300 nM |  |  |  |  | Not Active
19 | N[C@H](COc1cccc2c1NC(=O)CO2)CN1CCC2(CC1)Cc1cc(F)ccc1O2 | < 10 µL/min/mg | 79 nM |  |  |  |  | Not Active
20 | N[C@H](COc1cccc2ccc(=O)[nH]c12)CN1CCC2(CC1)Cc1cc(F)ccc1O2 | < 10 µL/min/mg | 560 nM |  |  | 1200 nM |  | Not Active
21 | CNC(=O)Nc1ccc(OC)cc1OC[C@@H](O)CN1CCC2(CC1)Cc1cc(F)ccc1O2 | 87.9 µL/min/mg | 13 nM |  | 1780 nM |  |  | 
22 | CNC(=O)Nc1ccc(O)cc1OC[C@@H](O)CN1CCC2(CC1)Cc1cc(F)ccc1O2 | < 10 µL/min/mg | 3.2 nM |  |  | 13100 nM | 10.7 µL/min | 
